{"source": "paper PMC11436104", "about": "(Toxins, 2024)", "key": {"[1]": {"experiment": "Interaction with the air–water interface (Langmuir trough, no lipids)", "assay_type": "physicochemical", "conditions": "absence of lipids, 0–30 µM injected, 25 °C, pH 7.5", "description": "Lateral pressure measurements were carried out in a Langmuir trough (MicroTrough-S system; Kibron, Helsinki, Finland) at room temperature (25 °C) under constant stirring. The aqueous sub-phase was 500 µL 10 mM Hepes, 200 mM NaCl, and pH 7.5."}, "NHAs [2]": {"test_system": "NHAs", "experiment": "Cell morphology, light microscopy (phase contrast)", "assay_type": "cell-based, human", "conditions": "evident already at 1 µM, 24 h, 100× magnification"}, "NHAs [3]": {"test_system": "NHAs", "experiment": "Cytoskeleton immunostaining (microfilaments, microtubules), confocal microscopy", "assay_type": "cell-based, human", "conditions": "10 µM, 24 h", "description": "(§1) To determine the influence of the CCPs on actin microfilament and microtubule organization, the cells were labeled with rhodamine-conjugated phalloidin (Molecular Probes, Cat. # R415), and mouse monoclonal anti-bovine α-tubulin antibodies (Molecular Probes Cat. # A11126) and secondary Alexa-488 goat anti-mouse IgG (Molecular Probes Cat. # A-11017), respectively. The cells (3000/well) were plated into 16-well plates (Culture Well Chambered Coverglass for Cell Culture; […].\n(§2) The cells in all the experiments were exposed to the CCPs for an additional 24 h in the CO2 incubator at 37 °C in a 5% CO2 atmosphere before they were fixed.\n(§3) Fixing and staining. The cells were washed in phosphate-buffered saline (PBS) and fixed in 3.7% paraformaldehyde in either PBS (37 °C, 30 min; for microfilaments, microtubules, nestin) or in ice-cold methanol (4 °C, 10 min; for GFAP, desmoplakin I+II). Then the cells were permeabilized in PBS containing 0.1% Triton X-100 (v/v; Merck, Germany) for 20 min and blocked in 4% bovine serum albumin (Sigma) at room temperature for 10 min. For desmoplakin I+II visualization, the cells were blocked in 10% fetal bovine serum (Sigma) for 60 min without cell permeabilization. Microfilaments were stained with rhodamine-conjugated phalloidin (1:40) for 30 min at room temperature. Microtubules were visualized by immunostaining using an anti-α-tubulin antibody overnight at 4 °C (1:200 in PBS containing Ca^2+, 0.1% [v/v] Tween-20) and the secondary antibodies labeled with Alexa-488 goat anti-mouse IgG (1:1000; 30 min at room temperature). Intermediate filaments were stained using anti-nestin (1:500; overnight at 4 °C) and anti-GFAP (1:500, overnight at 4 °C) antibodies. The anti-nestin-labeled cells were visualized using secondary antibodies labeled with Alexa-488 goat anti-mouse IgG and the anti-GFAP-labeled cells with Alexa-488 anti-rabbit IgG (1:1000 dilution, room temperature, 30 min). Desmoplakin I+II were stained with a mouse anti-desmoplakin I+II antibody (1:500 dilution; room temperature, 60 min) and visualized with Alexa-488 goat anti-mouse IgG (1:1000 dilution; room temperature, 30 min). The cell nuclei were stained with To-Pro-3 (Molecular Probes; 1:1000 dilution; room temperature, 30 min). After each step, the samples were washed three times with PBS. Finally, all the cell preparations were immersed in an antifade reagent (Prolong Gold; Molecular Probes) to prevent photobleaching.\n(§4) Microscopy. […] The cell preparations were also examined under light microscopy (Eclipse TE 3000; Nikon, Japan), and the images were recorded under phase contrast and epifluorescence (i.e., B-2A and G-2A filters, respectively)."}, "U87-MG cells [4]": {"test_system": "U87-MG cells", "experiment": "Cytoskeleton immunostaining (microfilaments, microtubules), confocal microscopy", "assay_type": "cell-based, human", "conditions": "10 µM, 24 h", "description": "as §1, §2, §3, §4"}, "U87-MG cells [5]": {"test_system": "U87-MG cells", "experiment": "Intermediate filament immunostaining (nestin, GFAP), confocal microscopy", "assay_type": "cell-based, human", "description": "(§5) For the intermediate filaments, visualization at 1 µM MC-LR was used as the positive control. The cells were stained with rabbit monoclonal anti-GFAP (Merck Millipore, Bedford, MA, USA, Cat. # AB5804) and secondary Alexa-488 goat anti-rabbit IgG (Molecular Probes, Cat. # A-11034) antibodies and with mouse monoclonal anti-nestin (Merck Millipore, Cat. # MAB5326) and secondary Alexa-488 goat anti-mouse IgG (Molecular Probes, Cat. # A-11017) antibodies.\nas §2, §3, §4"}, "U87-MG cells [6]": {"test_system": "U87-MG cells", "experiment": "MTT metabolic activity / cell viability", "assay_type": "cell-based, human", "description": "Normal human astrocytes (NHAs; Lonza, Walkersville, MD, USA) were grown and maintained in monolayer cultures in Dulbecco’s modified Eagle’s medium (DMEM; Sigma) supplemented with 10% fetal bovine serum (Euroclone, Pero, MI, Italy), 1% penicillin/streptomycin (Euroclone), 2 mM L-glutamine (Euroclone), and 20 mM Hepes (Invitrogen, Carlsbad, CA, USA). The U87-MG human glioblastoma cells (U87-MG cells; American Type Culture Collection, Manassas, VA, USA) were grown and maintained in monolayer cultures in DMEM supplemented with 10% fetal bovine serum, 1% penicillin/streptomycin, 4 mM L-glutamine, and 1% non-essential amino acids (Sigma).\nCell viability was determined using the 3-(4,5-dimethylthiazolyl-2)-2,5-diphenyltetrazolium bromide (MTT) assay, as according to Mosmann. This assay measures the conversion of MTT to its insoluble formazan by the dehydrogenase enzymes of the intact mitochondria of living cells. […]; Nunclon; Nunc, Naperville, IL, USA) and incubated for 16 h at 37 °C for attachment. […] The amount of formazan, which is proportional to the metabolic activity of cells, was quantified spectrophotometrically at 570 nm (reference filter wavelength, 690 nm) using a microplate reader (Synergy MX; BioTek, Winooski, VT, USA). The metabolic activity of the cells was determined by comparing the optical densities of the CCP-treated cells with those of the negative control. […]"}, "U87-MG cells [7]": {"test_system": "U87-MG cells", "experiment": "Cell morphology, light microscopy (phase contrast)", "assay_type": "cell-based, human"}, "NHAs [8]": {"test_system": "NHAs", "experiment": "Intermediate filament immunostaining (nestin, GFAP), confocal microscopy", "assay_type": "cell-based, human", "description": "as §5, §2, §3, §4"}}, "note": "Where two headings read alike, the source gives them in different places. *1 amine or outer side, *2 acyl side, *3 side chain or, on linkers, in order; H or OH if unused. Where a SMILES comes first, the peptide text is derived from it. Bridges are numbered along the chain shown (N, C = ends). [ ]: non-standard residue; d: D form. Adda = CO[C@@H](Cc1ccccc1)[C@@H](C)/C=C(C)/C=C/[C@H](N[*:1])[C@H](C)C(=O)[*:2]; dAsp(3S-Me) = C[C@H](C(=O)[*:3])[C@@H](N[*:1])C(=O)[*:2]; d(γGlu) = O=C(O)[C@@H](CCC(=O)[*:2])N[*:1]; hTyr = N[C@@H](CCc1ccc(O)cc1)C(=O)O; NMeA = CN[C@@H](C)C(=O)O; NMeDha = C=C(NC)C(=O)O; CO = O=C([*:1])[*:2]", "data": [{"smiles": "CC[C@H](C)[C@@H]1NC(=O)[C@H](Cc2ccc(OC)cc2)N(C)C(=O)[C@H]([C@@H](C)O)N2C(=O)[C@H](CC[C@H]2O)NC(=O)[C@H](CC(C)C)NC(=O)[C@@H](NC(=O)[C@H](CCC(N)=O)NC(=O)[C@H](CCc2ccc(O)cc2)NC(=O)[C@@H](O)CO)[C@@H](C)OC1=O", "values": [{"measurement": "concentration at which saturation of the air–water interface was observed", "setting": "[1]", "result": 25, "unit": "µM"}, {"measurement": "morphological changes under light microscopy", "setting": "NHAs [2]", "result": "formation of twisted astrocytic outgrowths"}, {"measurement": "microfilament and microtubule organization", "setting": "NHAs [3]", "result": "strong cytolytic effects on the NHAs, with the collapse of the microfilaments in the center of the cell"}, {"measurement": "microfilament (actin) organization", "setting": "U87-MG cells [4]", "result": "aggregation of the cortical microfilaments along the basal membrane and degradation of the membrane ruffles"}, {"measurement": "microtubule organization", "setting": "U87-MG cells [4]", "result": "the microtubules were reorganized and concentrated around the nucleus"}, {"measurement": "GFAP filament organization", "setting": "U87-MG cells [5]; U87-MG, 24 h", "result": "concentration of the GFAP filaments was observed along the entire cell body"}]}, {"smiles": "C=C1C(=O)N[C@H](C)C(=O)N[C@@H](CC(C)C)C(=O)N[C@@H](C(=O)O)[C@H](C)C(=O)N[C@@H](CCCNC(=N)N)C(=O)N[C@@H](/C=C/C(C)=C/[C@H](C)[C@H](Cc2ccccc2)OC)[C@H](C)C(=O)N[C@@H](C(=O)O)CCC(=O)N1C", "note": "[MC-LR, Microcystin-LR, reference compound] (R[Adda][d(γGlu)][NMeDha][dA]L[dAsp(3S-Me)]-OH; lactam N-7)", "values": [{"measurement": "mean decrease in viability", "setting": "U87-MG cells [6]", "result": 15, "unit": "%"}, {"measurement": "viability vs control", "setting": "U87-MG cells [6]", "result": "not significantly changed"}, {"measurement": "morphological changes under light microscopy", "setting": "U87-MG cells [7]", "result": "loss of astrocytic domain organization, but also in a reduction in cell numbers"}, {"measurement": "nestin organization", "setting": "NHAs [8]", "result": "most intense nestin concentration"}, {"measurement": "GFAP filament organization", "setting": "U87-MG cells [5]", "result": "concentration of the GFAP filaments was observed along the entire cell body"}]}, {"smiles": "CC(C)[C@@H]1NC(=O)[C@H](NC(=O)N[C@@H](CCCNC(=N)N)C(=O)O)CCCCNC(=O)[C@H](Cc2ccccc2)NC(=O)[C@H](C)N(C)C(=O)[C@H](CCc2ccc(O)cc2)NC1=O", "note": "[anabaenopeptin B] ({Arg-CO}-[dK]V[hTyr][NMeA]F; lactam 1-C)", "values": [{"measurement": "morphological changes under light microscopy", "setting": "NHAs [2]", "result": "formation of twisted astrocytic outgrowths"}, {"measurement": "GFAP immunolabeling, cell shape", "setting": "NHAs [8]; NHAs, 24 h", "result": "characteristic twisted outgrowths"}]}, {"smiles": "CC[C@H](C)[C@@H]1NC(=O)[C@H](NC(=O)N[C@@H](CCCNC(=N)N)C(=O)O)CCCCNC(=O)[C@H](Cc2ccccc2)NC(=O)[C@H](C)N(C)C(=O)[C@H](CCc2ccc(O)cc2)NC1=O", "note": "[anabaenopeptin F] ({Arg-CO}-[dK]I[hTyr][NMeA]F; lactam 1-C)", "values": [{"measurement": "microfilament (actin) organization", "setting": "U87-MG cells [4]", "result": "actin aggregation"}]}]}
